From patent publication US5919769A, “Fucose derivatives, drugs containing the same as active ingredient, and intermediates for producing the same” (Kanebo, Ltd, priority 1995, dated 1999)

What was measured:
P-selectin = assay: Inhibitory test on the binding of P-selectin to sialyl Le^X (selectin-IgG chimera); conditions: inhibition of P-selectin IgG chimera binding to sialyl Le^X-pentaceramide
Protocol: Inhibitory test on the binding of P-selectin to sialyl Le^X :
(§1) The experiment was carried out according to the method using selectin-IgG chimera, which was reported by Foxall, C. et al. (J. Cell Biol., 117, 895-902 (1992)).
(§2) Sialyl Le^X -pentaceramide was dissolved in 50% methanol in distilled water, and the solution was put into a 96-well plate in an amount of 100 pmol/well. The plate was allowed to stand at room temperature overnight, and the solvent therein was evaporated. The plate was washed with distilled water, and subjected to blocking with 50 mM imidazole buffer (pH 7.2) containing 5% BSA (bovine serum albumin) and 1 mM calcium chloride at room temperature for one hour.
(§3) Separately, to 500-fold diluted solution of each biotinylated anti-human IgG Fc and streptavidin-alkaline phosphatase conjugate with a 50 mM imidazole buffer (pH 7.2) containing 1% BSA and 1 mM calcium chloride, P-selectin IgG chimera was added to give a final concentration of 40 μg/ml, and the mixture was incubated at room temperature for 30 minutes to give the complex solution.
(§4) A test compound was dissolved in DMSO (except that the test compound h was dissolved in distilled water) to give 10 mM aqueous solution thereof, which was serially diluted with 50 mM imidazole buffer (pH 7.2) containing 1% BSA and 1 mM calcium chloride to give the solutions in 8 various concentrations (two-fold serial dilution from 20 μM). The test compound solution in each concentration and the above complex solution were mixed in equal volume, and the mixture was incubated at room temperature for 30 minutes to give the reaction solution.
(§5) After the blocking was completed, the blocking solution in the above plate was discarded, and the plate was washed with 50 mM imidazole buffer (pH 7.2), and thereto was added the above reaction solution in an amount of 50 μl/well. The plate was incubated at 37° C. for 45 minutes, and then washed three times with 50 mM imidazole buffer (pH 7.2) and washed three times with distilled water. 1M diethanolamine (pH 9.8) containing 0.01% magnesium chloride and 1 mg/ml p-nitrophenyl phosphate was put into each well in an amount of 50 μl/well, and the plate was allowed to stand for 1 to 2 hours for color development. The absorbance at 405 nm was measured, and the binding rate (%) was calculated by the following equation, based on the absorbance (X) of the wells containing a test compound at various concentrations and the absorbance (A) of the wells containing no test compound.
(§6) IC50 was evaluated by probit method from the binding rate.

cell infiltration [1] = assay: Inhibitory effects on the peritoneal inflammation induced by thioglycollate (cell infiltration, MPO activity); assay type: in vivo, Male BALB/C mice; conditions: 10 mg/kg, tail vein just before and one hour after induction, peritoneal exudate cells
Protocol: Inhibitory effects on the peritoneal inflammation induced by thioglycollate:
Male BALB/C mice (11-weeks old) were peritoneally injected with 3% thioglycollate medium (1 ml) to induce the inflammation. In the non-inflammation group, saline was peritoneally injected to the mice. Two hours thereafter, the mice were killed with […], and the peritoneal cavity was washed with a phosphate buffered saline containing 0.1% BSA, 0.5 mM EDTA, 10 U/ml heparin to collect the exudate cells. The red blood cells were lysed, and the exudate cells were lysed in 50 mM potassium phosphate buffer containing 0.5% hexadecyltrimethylammonium bromide. The MPO activity in the supernatant was measured according to the Bradley's method (see the above reference).
The test compound was dissolved in 0.0012M arginine-containing saline solution so as to be a concentration of 1 mg/ml. The test compound solution was injected to the mice at the tail vein in a dosage volume of 0.1 ml/10 g of the body weight, at just before and one hour after the induction of inflammation response (the treated group). In the control group, saline solution was injected to the mice.
The cell infiltration inhibitory rate was calculated in the same manner as in Experiment 4, by the equation 3.

L-selectin = assay: Inhibitory test on the binding of L-selectin to sialyl Le^X (selectin-IgG chimera); conditions: inhibition of L-selectin IgG chimera binding to sialyl Le^X-pentaceramide
Protocol: as §1, §2, §3, §4, §5, §6
Inhibitory test on the binding of L-selectin to sialyl Le^X :
The same procedures of Experiment 1 were repeated except that L-selectin IgG chimera (40 μg/ml) was used instead of P-selectin IgG chimera (40 μg/ml).

[2] = Oral toxicity observation in mice; assay type: in vivo; conditions: 1000 mg/kg orally, observed for one week
From the text: Moreover, the compound (I) of the present invention or a salt thereof show low toxicity. […] Therefore, the compound (I) of the present invention or a salt thereof is useful as a medicament.

[3] = Inhibitory effects on ear swelling (ovalbumin-sensitized mice); assay type: in vivo, Female BALB/c mice; conditions: tail vein at 2, 5 and 8 hours, 24 hours after induction
Protocol: Inhibitory effects on ear swelling:
(§7) Female BALB/c mice (6-weeks old) were sensitized by intraperitoneal injection of saline (0.5 ml) containing ovalbumin ([…]) and aluminum hydroxide gel (4 mg). Two weeks after the sensitization, a 1 mg/ml solution of ovalbumin in phosphate buffered saline (10 μl) was subcutaneously injected to the mice at both of the ears to induce the inflammatory response. In the non-inflammation group, phosphate buffered saline was subcutaneously injected to the sensitized mice instead.
(§8) The test compound was dissolved in 0.01N-NaOH-saline so as to be a concentration of 1 mg/ml, and the solution was diluted with saline. The test compound solution thus prepared was injected to the mice at the tail vein, at 2, 5 and 8 hours after the induction of inflammatory response, in a dosage volume of 0.1 ml/10 g of body weight (the treated group). In the control group, saline only was injected to the mice.
Twenty-four hours after the induction of inflammatory response, both of the ears were cut to collect a piece of 6 mm diameter, and the weight thereof was measured. The ear weight per area was used as an index for ear swelling. The inhibitory rate on ear swelling was calculated by the following equation. [formula] Wexp: Average ear weight in the treated group Wnega: Average ear weight in the non-inflammation group
Wcont: Average ear weight in the control group

cell infiltration [4] = assay: Inhibitory effects on cell infiltration (MPO activity in ear tissue of Experiment 3); assay type: in vivo, Female BALB/c mice; conditions: tail vein at 2, 5 and 8 hours
Protocol: as §7, §8
Inhibitory effects on cell infiltration:
According to the report by Bradley, P. P. et al, (cf., Journal of Investigative Dermatology, 78, 206-209 (1982)), the activity of myeloperoxidase (hereinafter, referred to as MPO) in the tissue was used as an index for cell infiltration.
The ear tissue, the weight of which was measured in Experiment 3, was homogenized, and centrifuged. The MPO activity in the supernatant was measured by using the absorbance at 450 nm (hereinafter, referred to as OD) of o-dianisidine as an index, according to the method of Bradley, et al. (see the above reference).
The inhibitory rate on cell infiltration was calculated by the following equation. [formula] ODexp: Average OD in the treated group ODnega: Average OD in the non-inflammatory group
ODcont: Average OD in the control group

Row | IC50 (P-selectin) [nM] | IC50 (L-selectin) [nM] | Compound | Cell infiltration inhibitory rate (cell infiltration [1]) [%] | change observed after oral administration [2] | Ear swelling inhibitory rate ([3]; 0.1 mg/kg) [%] | Ear swelling inhibitory rate ([3]; 1 mg/kg) [%] | Ear swelling inhibitory rate ([3]; 10 mg/kg) [%] | Cell infiltration inhibitory rate (cell infiltration [4]; 0.1 mg/kg) [%] | Cell infiltration inhibitory rate (cell infiltration [4]; 1 mg/kg) [%] | Cell infiltration inhibitory rate (cell infiltration [4]; 10 mg/kg) [%]
1 | 700 | 9400 | CCCCCCCCCCCCCCC(CCCCCCCCCCCCCC)C(=O)N[C@H](CO[C@@H]1O[C@@H](C)[C@@H](O)[C@@H](O)[C@@H]1O)C(=O)N[C@@H](CCC(=O)O)C(=O)NC [compound k, [N-(2-tetradecylhexadecanoyl)-O-(α-L-fucopyranosyl)-D-seryl]-L-glutamic acid 1-methylamide] | 37 |  |  |  |  |  |  | 
2 | 300 | 500 | CCCCCCCCCCCCCCC(CCCCCCCCCCCCCC)C(=O)N[C@H](CO[C@@H]1O[C@H]([C@H](C)O)[C@@H](O)[C@@H]1O)C(=O)N[C@@H](CCC(=O)O)C(=O)NC [compound c, [N-(2-tetradecylhexadecanoyl)-O-(α-L-fucofuranosyl)-D-seryl]-L-glutamic acid 1-methylamide] | 64 | no significant change was observed | 45 | 59 | 86 | 19 | 34 | 64
